Results: patent US20170334919A1, “2-((4-AMINO-3-(3-FLUORO-5-HYDROXYPHENYL)-1H-PYRAZOLO[3,4-D]PYRIMIDIN-1 -YL)METHYL)-3-(2-(TRIFLUORO-MET HYL)BENZYL)QUINAZOLIN-4(3H)-ONE DERIVATIVES AND THEIR USE AS PHOSPHOINOSITIDE 3-KINASE INHIBITORS” (RESPIVERT LTD., priority 2013, published 2017)

What was measured:
THP1 cells = assay: Chemotaxis to MCP1; format: cell-based; details: Homo sapiens, THP-1; read-out: REC50, THP1 cell chemotaxis to MCP1
Protocol: As a means of assessing PI3K γ dependent cell function, THP1 cell chemotaxis to MCP-1 was evaluated using a 48 well-chemotaxis chamber. THP1 cells from a human leukemic monocyte lymphoma cell line, (purchased from ATCC Manassas, Va.) were maintained in RPMI 1640 (Invitrogen Ltd., Paisley, UK) with 10% FCS at 37° C. Cells were re-suspended in 0.5% BSA/RPM11640 (2×10^6 cells/mL) and incubated for 10 min at 37° C., 5% CO2. Cell suspension aliquots (500 μL) were then treated either with compounds in neat DMSO or with DMSO as vehicle (2.5 μL) for 1hr (37° C., 5% CO2).
MCP1 (50 nM) was prepared in 0.5% BSA/RPM11640. MCP1 solution (50 μL) was added to each well in the bottom plate of a 48-well chemotaxis chamber (AP48, NeuroProbe Inc., Gaithersburg, Md.). A polycarbonate membrane (8 μm) was mounted on the bottom chamber, and then the top plate was mounted on the bottom chamber and filter membrane. […]
A solution of MTT (50 μL) in 10% FCS phenol red-free RPM11640 was added to each well, and the plate was incubated for 2 hr (37° C., 5% CO2). Neat DMSO (100 μL) was added to each well to extract formazan formed from MTT and the plates were shaken lightly for 1 hr prior to measuring the absorbance at 595 nm (Varioskan® Flash, Thermo-Fisher Scientific). […] Relative EC50 values were determined from concentration-inhibition curves using XL-Fit (idbs, Guildford, UK).

IFNγ-primed U937 cells = assay: Superoxide anion production assay (zymosan-induced ROS); format: cell-based; details: Homo sapiens, U-937; read-out: REC50, Zymosan-induced ROS production in IFNγ-primed U937 cells
Protocol: As a means of assessing PI3Kδ dependent cell function, superoxide anion production in IFNγ-primed U937 cells was evaluated by a chemiluminescence assay. The U937 cells (purchased from ATCC, Manassas, Va.) were maintained in RPMI 1640 (Invitrogen Ltd., Paisley, UK) with 10% FCS at 37° C. The cells were suspended at a density of 10^7cells/mL in 40 mL 10% FCS RPMI 1640, and treated with 20 μL of 100 μg/mL IFNγ solution (final concentration: 50 ng/mL), and incubated at 37° C., 5% CO2 for 4 days.
IFNγ-primed U937 cells were seeded at 0.2×10^6 cells/well in a 96-well plate, and pre-incubated with test compounds for 2 hr in starvation media (0.5% FCS RPMI1640-phenol red free). Zymosan A (10 mg) from Saccharomyses cerevisiae (ex Sigma-Aldlich) was resuspended in 1 mL of 150 mM NaCl and boiled at 100° C. for 15 min. After boiling, Zymosan particles were washed with 1 mL of PBS twice, and incubated with 0.5 mL of BioParticles™ opsonized reagents (Life technologies) for 60 min at 37° C. […] Chemiluminescence indicating released superoxide anion was measured every 15 min up to 60 min by luminometric measurement (Varioskan® Flash, Thermo-Fisher Scientific).
The data at 60 min after incubation was used for analysis. […] The relative EC50 values were calculated from the concentration-response curves generated by the serial dilutions of the test compounds using XL-Fit (idbs, Guildford, UK).

[1] = system: LPS-induced airway neutrophilia in mice; assay: LPS-induced airway neutrophil accumulation in mice; format: in vivo, BALB/c mice
Protocol: Non-fasted BALB/c mice (6-8 weeks old) were dosed with vehicle or with test compound by intra-tracheal administration (dose volume 20 μL) at time points T=−2 hr, −8 hr, or −12 hr with respect to the start of LPS treatment. The LPS was prepared in a solution of 0.5 mg/mL and aerosolised using a De Vibliss ultrasonic nebuliser 2000 (7 mL during 30 min exposure). At eight hr after LPS challenge, the trachea was cannulated and bronchoalveolar lavage fluid (BALF) extracted by infusing and then withdrawing PBS (1 mL) into the lungs via the tracheal catheter. This procedure was repeated to give a yield of approximately 2 mL lavage fluid. Total cell numbers in the BALF samples were measured using a haemocytometer. Cytospin smears of the BALF samples were prepared by centrifugation at 1200 rpm for 2 min at RT and stained using a DiffQuik stain system (Dade Behring) for differential cell counts. Cells were counted using oil immersion microscopy. Data are expressed as neutrophil number of cells per mL of BALF (mean±S.E.M).

[2] = 0.2 mg/mL intra-tracheal, pre-dose time 8 hr

COCCOCCOCC#Cc1cccc2nc(Cn3nc(-c4cc(O)cc(F)c4)c4c(N)ncnc43)n(Cc3ccccc3C(F)(F)F)c(=O)c12 [Compound (I), 2-((4-Amino-3-(3-fluoro-5-hydroxyphenyl)-1H-pyrazolo[3,4-d]pyrimidin-1-yl)methyl)-5-(3-(2-(2-methoxyethoxy)ethoxy)prop-1-yn-1-yl)-3-(2-(trifluoromethyl)benzyl)quinazolin-4(3H)-one]
EC50 (THP1 cells): 33.9 nM | EC50 (IFNγ-primed U937 cells): 11.8 nM | Neutrophil numbers in BALF, % inhibition ([1]; 0.05 mg/mL intra-tracheal, pre-dose time 2 hr): 2.5 (19) % | Neutrophil numbers in BALF, % inhibition ([1]; 0.2 mg/mL intra-tracheal, pre-dose time 2 hr): 1.4 (53) % | Neutrophil numbers in BALF (mean ± SEM) [1, 2]: 9.4 ± 2.0 ×10^5/mL | Neutrophil numbers in BALF, % inhibition [1, 2]: 45% | Neutrophil numbers in BALF, % inhibition ([1]; 0.2 mg/mL intra-tracheal, pre-dose time 12 h): 23% | Neutrophil numbers in BALF, % inhibition ([1]; 1.0 mg/mL intra-tracheal, pre-dose time 2 hr): 68%
